Results as given in US9233965B2, “3,4-dihydropyrrolo[1,2-A]pyrazine-2,8(1H)-dicarboxamide derivatives, preparation thereof and therapeutic use thereof for diseases involving casein kinase 1 epsilon and/or casein kinase 1 delta” (SANOFI, priority 2010, dated 2016).

Key:
[1] = target: human CK1 delta (Homo sapiens (Human), UniProt P48730); test: Test B: inhibitory activity on CK1 delta measured by FRET (Z'Lyte kinase assay kit); assay type: biochemical; conditions: substrate peptide SER/THR 11 2 μM, ATP 4 times the KM
Sequence of human CK1 delta (P48730 whole entry): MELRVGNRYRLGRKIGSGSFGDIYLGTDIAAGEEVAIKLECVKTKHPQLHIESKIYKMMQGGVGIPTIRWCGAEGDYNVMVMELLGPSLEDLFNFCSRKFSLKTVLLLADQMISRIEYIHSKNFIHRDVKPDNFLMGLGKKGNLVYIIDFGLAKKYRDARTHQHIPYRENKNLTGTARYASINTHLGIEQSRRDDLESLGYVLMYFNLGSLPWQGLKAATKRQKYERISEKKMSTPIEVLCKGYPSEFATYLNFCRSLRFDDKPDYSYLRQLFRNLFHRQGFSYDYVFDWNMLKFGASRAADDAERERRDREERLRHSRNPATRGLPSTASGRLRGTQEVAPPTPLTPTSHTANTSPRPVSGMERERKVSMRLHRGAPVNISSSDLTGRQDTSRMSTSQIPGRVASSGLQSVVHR
Excerpt: Test B: Inhibitory Activity on CK1 Delta Measured by FRET
The capacity of the compounds of the invention to inhibit the phosphorylation of casein by the casein kinases 1 epsilon and delta may be evaluated using an FRET (Fluorescence Resonance Energy Transfer) fluorescence test with the aid of the “Z'Lyte™ kinase assay kit” (reference PV3670; Invitrogen Corporation™) according to the manufacturer's instructions.
The casein kinases 1 used are obtained from Invitrogen Corporation (human CK1 epsilon PV3500 and human CK1 delta PV3665).
A peptide substrate labelled at both ends with a fluorophore-donating group (coumarin) and a fluorophore-accepting group (fluorescein) constituting an FRET system is […] in the presence of ATP by casein kinase 1 epsilon or delta in the presence of increasing concentrations of compounds of the invention.
The mixture is treated with a site-specific protease that specifically cleaves the substrate peptide to form two fluorescent fragments having a large fluorescence emission ratio.
The fluorescence observed is thus related to the capacity of the products of the invention to inhibit the phosphorylation of the substrate peptide by casein kinase 1 epsilon or casein kinase 1 delta. […]
The emitted fluorescence is measured at wavelengths of 445 and 520 nm (excitation at 400 nm). […]

[2] = target: casein kinase 1 epsilon (CK1 epsilon) (Homo sapiens (Human), UniProt P49674); test: Test A: inhibitory activity on CK1 epsilon, casein phosphorylation assay on ATP-33P filter plate; assay type: biochemical; conditions: IC50 values or IC50 ranges (result of several experiments), ATP 10 μM final
Sequence of casein kinase 1 epsilon (CK1 epsilon) (P49674 whole entry): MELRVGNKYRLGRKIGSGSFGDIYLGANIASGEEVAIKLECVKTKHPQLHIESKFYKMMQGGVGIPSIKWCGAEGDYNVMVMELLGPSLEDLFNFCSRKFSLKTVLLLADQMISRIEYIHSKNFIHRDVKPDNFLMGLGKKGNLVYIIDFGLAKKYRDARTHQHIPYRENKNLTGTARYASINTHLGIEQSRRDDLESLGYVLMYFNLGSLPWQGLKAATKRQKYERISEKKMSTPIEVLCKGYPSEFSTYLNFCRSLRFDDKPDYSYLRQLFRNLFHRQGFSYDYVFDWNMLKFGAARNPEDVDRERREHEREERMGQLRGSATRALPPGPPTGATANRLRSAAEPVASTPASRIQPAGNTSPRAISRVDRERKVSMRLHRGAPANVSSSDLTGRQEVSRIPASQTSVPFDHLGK
Summary of the method: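 Human CK1 epsilon (3 ng/μL final) phosphorylates dephosphorylated casein (0.2 μg/μL) with ATP-33P plus 10 μM cold ATP (KM for ATP 21 μM), 2 h at room temperature, pH 7.5 Tris buffer. TCA-precipitated protein counted by scintillation; compounds at 10 to 0.001 μM give IC50 values or % inhibition at 10 μM.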

## CC(C)(C)NC(=O)N1CCn2c(c(C(N)=O)c(-c3ccccc3)c2C2CC2)C1 [Compound 10, N^2-tert-butyl-6-cyclo-propyl-7-phenyl-3,4-dihydropyrrolo[1,2-a]pyrazine-2,8(1H)-dicarboxamide]
[1]
  IC50: 31 nM
[2]
  IC50: 15 to 77 nM
